Measurements taken from patent US20080070978A1, “Internal 1,15-Lactones Of Fluprostenol And Related Prostaglandin F2a Analogs And Their Use In The Treatment Of Glaucoma And Intraocular Hypertension” (priority 2000, published 2008).

System: corneal esterase enzymes
Assay: Enzymatic hydrolysis of fluprostenol 1,15-lactone by corneal esterase enzymes (incubation with bovine corneal tissue; TLC and HPLC analysis)
Assay type: in vitro ADME
Conditions: pH 7.4 phosphate buffered saline, 37° C.
Procedure: Enzymatic hydrolysis of fluprostenol 1,15-lactone by corneal esterase enzymes was documented by suspending 500 μg of fluprostenol 1,15-lactone in 10 ml of pH 7.4 phosphate buffered saline containing approximately 40 mg of freshly collected bovine cornea! tissue. The mixture was incubated at 37° C. and analyzed at 2 hour, 4 hour and 18 hour time intervals by Thin Layer Chromatography (TLC; Analtech silica gel G-60 plates) using 40:60 acetone:dichloromethane containing 0.5% acetic acid. The plates were visualized by spraying with vanillin dissolved in methanol and phosphoric acid; followed by charring on a hot plate. PGF2α methyl ester, which is known to be hydrolyzed by corneal esterases, was subjected to the same procedure as a control.
The results are shown in FIGS. 3A-3D which are images of chromatography plates developed at 2 hours (FIGS. 3A and 3C) and 4 hours (FIGS. 3B and 3D), respectively. […]
The mixture of fluprostenol 1,15-lactone and bovine corneal tissue was also analyzed using HPLC under the conditions specified in FIGS. 4A and 4B which are graphic representations of the HPLC analysis results for a fluprostenol 1,15-lactone standard (FIG. 4A) and a mixture of fluprostenol 1,15-lactone and bovine corneal tissue incubated for 4 hours (FIG. 4B).

O=C1CCC/C=C\CC2C(/C=C/[C@@H](COc3cccc(C(F)(F)F)c3)O1)[C@H](O)C[C@@H]2O (some centres unmarked) [fluprostenol 1,15-lactone]
conversion of fluprostenol 1,15-lactone to fluprostenol free acid (HPLC, after 4 hours): more than 50% | release of the free acid by hydrolysis (TLC, by 4 hours): clearly shown
